Test results taken from ChEMBL document CHEMBL1201862, “PubChem BioAssay data set” (2004).
Activity calls are given as the source filed them.

Experiments:
[1] = molecular target: Melanocortin receptor 4 (Homo sapiens, UniProt P32245); test: inhibitors of MC4R cAMP signaling – cell-based, TR-FRET, biased antagonists, dose response (AID 602298); format: functional;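 note: antagonist potency against agonist-stimulated cAMP production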
[2] = cAMP pathway inhibition in counterscreen cell line – TR-FRET cAMP detection, counter-screen for MC4R biased antagonist project, dose response (AID 602305); format: functional, cell-based;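 note: U2OS cells stimulated with forskolin near its EC80 as the cAMP inducer; potency is for inhibition of forskolin-stimulated cAMP signaling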
[3] = Luminescence Cell-Based Dose Response HTS to Identify Inhibitors of 5'UTR Stem-Loop Driven Prion Protein mRNA Translation in H4 Neuroglioblastoma Cells. [Related pubchem assays: 1827 (Project Summary), 1813 (Primary HTS)]; format: functional
[4] = alpha-synuclein stem-loop translation blockers – luminescence, H4 neuroglioblastoma cells, dose confirmation, confirmation (AID 2454); format: functional, cell-based;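 note: H4 neuroglioblastoma cells carrying an alpha-synuclein 5'UTR luciferase reporter; potency for inhibition of the luciferase signal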
[5] = cells; format: functional, cell-based
[6] = test system: BJ; test: BJ-TERT fibroblast viability loss – cell-based, RAS-independent, luminescence, dose response (AID 1933); format: functional; settings: Homo sapiens
[7] = test system: BJ; test: growth inhibition of engineered Ras-driven BJ cells – cell-based, alamar blue fluorescence, cherrypicked samples, dose response (AID 2631); format: functional; settings: Homo sapiens;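 note: confirmatory dose-response assay in RAS-dependent BJ fibroblasts engineered with TERT, LT and ST, with cytotoxicity read by fluorescence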
[8] = luciferase reporter signal suppression in cells – H4 neuroglioma cells, luminescence, dose response (AID 1990); format: functional, cell-based
[9] = test system: BJ; test: BJ-TERT-LT-ST fibroblast viability loss – cell-based, RAS-independent, luminescence, dose response (AID 1935); format: functional; settings: Homo sapiens;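 note: BJ fibroblasts immortalized with TERT plus LT and ST oncogenes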
[10] = alpha-synuclein stem-loop luciferase translation blockers – H4 neuroglioma cells, luminescence, confirmation (AID 1988); format: functional, cell-based
[11] = DRD fibroblast viability loss – cell-based, non-viral oncogenic, luminescence, dose response (AID 1934); format: functional; settings: Homo sapiens
[12] = test system: BJ; test: cells; format: functional, cell-based; settings: Homo sapiens
[13] = luciferase reporter signal reduction – luminescence, H4-C neuroglioblastoma cells, dose response (AID 2458); format: functional, cell-based;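 note: H4 neuroglioblastoma cells stably carrying a luciferase reporter gene fusion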
[14] = molecular target: Beta-galactosidase (Escherichia coli, UniProt Q8VNN2); test: PubChem AID 485352; format: functional
[15] = molecular target: T1, Type-1 angiotensin II receptor (Homo sapiens, UniProt P30556); test: antagonism of angiotensin II type 1 receptor – cell-based, uHTS hits, selectivity assay for APJ receptor antagonist project, dose response (AID 463214); format: functional;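 note: antagonist potency against angiotensin II stimulated AT1 response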
T1 sequence (P30556 whole entry): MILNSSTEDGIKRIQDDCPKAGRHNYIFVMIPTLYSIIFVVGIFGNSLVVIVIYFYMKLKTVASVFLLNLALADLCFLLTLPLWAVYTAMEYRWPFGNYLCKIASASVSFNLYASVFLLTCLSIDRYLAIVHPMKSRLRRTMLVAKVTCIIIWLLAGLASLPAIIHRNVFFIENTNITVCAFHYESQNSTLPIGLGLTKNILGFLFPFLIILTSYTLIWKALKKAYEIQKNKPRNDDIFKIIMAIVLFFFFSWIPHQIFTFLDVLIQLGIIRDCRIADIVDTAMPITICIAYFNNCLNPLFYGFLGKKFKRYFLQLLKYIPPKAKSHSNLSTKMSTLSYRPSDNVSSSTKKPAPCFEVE

[16] = molecular target: T2, Coagulation factor XII (Homo sapiens, UniProt P00748); format: functional;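 note: activated factor XIIa alpha cleaving a fluorogenic AMC peptide substrate; inhibitor potency from loss of enzyme activity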
T2 sequence (P00748 whole entry): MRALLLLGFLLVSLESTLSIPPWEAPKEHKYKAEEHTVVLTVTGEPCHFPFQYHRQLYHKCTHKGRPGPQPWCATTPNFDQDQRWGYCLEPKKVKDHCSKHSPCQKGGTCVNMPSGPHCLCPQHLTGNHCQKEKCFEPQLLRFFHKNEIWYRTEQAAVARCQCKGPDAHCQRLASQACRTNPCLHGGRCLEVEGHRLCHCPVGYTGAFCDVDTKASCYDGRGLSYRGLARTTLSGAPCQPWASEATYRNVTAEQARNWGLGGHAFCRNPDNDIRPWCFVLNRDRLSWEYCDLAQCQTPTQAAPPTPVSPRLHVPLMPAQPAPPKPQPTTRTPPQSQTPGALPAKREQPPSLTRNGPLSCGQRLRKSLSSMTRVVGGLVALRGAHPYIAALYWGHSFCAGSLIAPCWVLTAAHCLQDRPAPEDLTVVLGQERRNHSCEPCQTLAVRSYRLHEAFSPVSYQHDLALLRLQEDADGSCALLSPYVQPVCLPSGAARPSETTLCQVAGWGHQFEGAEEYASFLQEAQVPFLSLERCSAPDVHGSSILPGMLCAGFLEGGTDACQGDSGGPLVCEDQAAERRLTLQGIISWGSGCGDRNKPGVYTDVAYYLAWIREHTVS

[17] = molecular target: Prothrombin (Homo sapiens, UniProt P00734); test: Thrombin 1536 HTS Dose Response Confirmation. [Related pubchem assays: 1046 (Thrombin 1536 HTS; hits were confirmed in this assay)]; format: functional
[18] = molecular target: Peroxisome proliferator-activated receptor gamma/Nuclear receptor coactivator 2 (Homo sapiens, UniProt P37231); test: (§1) TR-FRET dose response biochemical High Throughput Screening assay for agonists of the steroid receptor coactivator 2 (SRC-2) recruitment by the peroxisome proliferator-activated receptor gamma (PPAR gamma): non-selective agonists. [Related pubchem assays: 1297, 1032 ]; format: functional
[19] = molecular target: Peroxisome proliferator-activated receptor gamma/Nuclear receptor coactivator 1 (Homo sapiens, UniProt P37231); test: as §1, with “1 (SRC-1)” for “2 (SRC-2)”, “assays (depositor defined):AID1300, AID1808, AID504735, AID631]” for “assays: 1297, 1032 ]”; format: protein assay
[20] = molecular target: Peroxisome proliferator-activated receptor gamma/Nuclear receptor coactivator 3 (Homo sapiens, UniProt P37231); test: as §1, with “3 (SRC-3)” for “2 (SRC-2)”, “1301 (Confirmation screen.), 1048 (Primary screen.)]” for “1297, 1032 ]”; format: functional
[21] = test system: P388; test: cells; format: functional; settings: Mus musculus
[22] = test system: SN12K1; test: cells; format: functional; settings: Homo sapiens
[23] = test system: P388/ADR; test: cells; format: functional; settings: Mus musculus
[24] = A549 cell cytotoxicity, dose response, cytotoxicity control, plate reader, cherry-pick, antagonist series (AID 743412); format: functional, cell-based
[25] = toxicity toward HepG2 liver cells – cell-based, plate reader, cherry-pick, antagonist series, cytotoxicity control, dose response (AID 743416); format: functional
[26] = blockade of melanocortin 4 receptor signaling – cell-based, plate reader, cherry pick, counter-screen for LGR2 antagonist project, dose response (AID 743444); format: functional;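 note: transfected HEK 293 cells stimulated with alpha-MSH peptide; potency of inhibitors of the alpha-MSH evoked signal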
[27] = blockers of bursicon-stimulated LGR2 cAMP reporter – cell-based, HEK293, CRE-luciferase reporter, cherry pick, set 2, dose response (AID 743343); format: functional;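 note: transfected cells were stimulated with diluted bursicon conditioned medium after compound addition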
[28] = viability loss in HEK293 cells – cell-based, plate reader, cherry-picked samples, cytotoxicity control, dose response (AID 743446); format: functional

Beta-galactosidase, sequence (Q8VNN2 whole entry): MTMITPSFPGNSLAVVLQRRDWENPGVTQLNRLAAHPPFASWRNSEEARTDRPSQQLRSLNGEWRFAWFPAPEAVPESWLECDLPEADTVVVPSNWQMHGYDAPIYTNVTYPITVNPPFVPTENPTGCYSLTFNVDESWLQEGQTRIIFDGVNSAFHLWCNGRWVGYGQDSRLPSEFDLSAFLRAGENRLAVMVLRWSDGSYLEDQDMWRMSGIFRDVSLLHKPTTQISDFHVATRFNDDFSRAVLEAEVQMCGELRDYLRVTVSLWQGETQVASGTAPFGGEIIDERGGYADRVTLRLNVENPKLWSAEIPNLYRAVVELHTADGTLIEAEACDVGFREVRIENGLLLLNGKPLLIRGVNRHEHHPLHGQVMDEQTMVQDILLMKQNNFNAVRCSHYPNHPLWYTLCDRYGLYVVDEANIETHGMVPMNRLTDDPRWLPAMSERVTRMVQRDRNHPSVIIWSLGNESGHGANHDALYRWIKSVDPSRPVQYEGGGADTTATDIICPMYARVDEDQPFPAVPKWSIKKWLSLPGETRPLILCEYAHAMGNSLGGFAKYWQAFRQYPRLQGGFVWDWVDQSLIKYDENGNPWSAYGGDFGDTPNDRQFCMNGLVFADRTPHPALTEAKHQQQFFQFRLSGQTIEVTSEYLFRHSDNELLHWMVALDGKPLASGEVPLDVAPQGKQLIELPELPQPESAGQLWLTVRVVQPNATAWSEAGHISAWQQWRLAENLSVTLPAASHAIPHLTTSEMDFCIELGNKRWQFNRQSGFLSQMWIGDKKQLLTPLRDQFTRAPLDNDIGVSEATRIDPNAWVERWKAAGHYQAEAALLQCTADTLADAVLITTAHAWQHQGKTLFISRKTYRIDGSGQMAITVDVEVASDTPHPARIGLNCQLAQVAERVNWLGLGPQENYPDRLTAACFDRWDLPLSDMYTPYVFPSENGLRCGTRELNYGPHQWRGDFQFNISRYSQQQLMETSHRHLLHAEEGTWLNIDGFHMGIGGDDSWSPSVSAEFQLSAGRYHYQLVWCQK
Melanocortin receptor 4, sequence (P32245 whole entry): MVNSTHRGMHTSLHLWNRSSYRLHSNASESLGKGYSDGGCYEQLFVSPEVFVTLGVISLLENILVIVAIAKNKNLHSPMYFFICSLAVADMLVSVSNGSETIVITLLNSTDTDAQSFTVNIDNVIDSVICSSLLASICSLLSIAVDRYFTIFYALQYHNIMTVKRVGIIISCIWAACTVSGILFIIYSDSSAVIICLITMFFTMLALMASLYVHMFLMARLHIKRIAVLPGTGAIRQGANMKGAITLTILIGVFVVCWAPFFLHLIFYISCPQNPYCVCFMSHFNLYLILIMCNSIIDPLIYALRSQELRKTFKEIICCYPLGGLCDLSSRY
Peroxisome proliferator-activated receptor gamma/Nuclear receptor coactivator 3, sequence (P37231 whole entry): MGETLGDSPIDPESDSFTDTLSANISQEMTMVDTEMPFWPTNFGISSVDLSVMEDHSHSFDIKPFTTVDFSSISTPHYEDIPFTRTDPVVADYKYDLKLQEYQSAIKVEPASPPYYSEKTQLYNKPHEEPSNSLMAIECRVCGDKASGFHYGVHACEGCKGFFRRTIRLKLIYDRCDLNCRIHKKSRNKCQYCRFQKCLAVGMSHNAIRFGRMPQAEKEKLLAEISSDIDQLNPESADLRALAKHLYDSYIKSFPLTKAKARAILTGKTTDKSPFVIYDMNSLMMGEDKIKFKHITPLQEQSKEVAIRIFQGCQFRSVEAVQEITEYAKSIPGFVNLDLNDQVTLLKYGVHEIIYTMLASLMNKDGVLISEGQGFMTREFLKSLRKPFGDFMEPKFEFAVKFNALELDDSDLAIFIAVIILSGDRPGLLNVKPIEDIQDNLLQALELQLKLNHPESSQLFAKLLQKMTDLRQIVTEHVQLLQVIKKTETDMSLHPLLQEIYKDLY
Peroxisome proliferator-activated receptor gamma/Nuclear receptor coactivator 3, sequence (Q9Y6Q9 whole entry, further chain): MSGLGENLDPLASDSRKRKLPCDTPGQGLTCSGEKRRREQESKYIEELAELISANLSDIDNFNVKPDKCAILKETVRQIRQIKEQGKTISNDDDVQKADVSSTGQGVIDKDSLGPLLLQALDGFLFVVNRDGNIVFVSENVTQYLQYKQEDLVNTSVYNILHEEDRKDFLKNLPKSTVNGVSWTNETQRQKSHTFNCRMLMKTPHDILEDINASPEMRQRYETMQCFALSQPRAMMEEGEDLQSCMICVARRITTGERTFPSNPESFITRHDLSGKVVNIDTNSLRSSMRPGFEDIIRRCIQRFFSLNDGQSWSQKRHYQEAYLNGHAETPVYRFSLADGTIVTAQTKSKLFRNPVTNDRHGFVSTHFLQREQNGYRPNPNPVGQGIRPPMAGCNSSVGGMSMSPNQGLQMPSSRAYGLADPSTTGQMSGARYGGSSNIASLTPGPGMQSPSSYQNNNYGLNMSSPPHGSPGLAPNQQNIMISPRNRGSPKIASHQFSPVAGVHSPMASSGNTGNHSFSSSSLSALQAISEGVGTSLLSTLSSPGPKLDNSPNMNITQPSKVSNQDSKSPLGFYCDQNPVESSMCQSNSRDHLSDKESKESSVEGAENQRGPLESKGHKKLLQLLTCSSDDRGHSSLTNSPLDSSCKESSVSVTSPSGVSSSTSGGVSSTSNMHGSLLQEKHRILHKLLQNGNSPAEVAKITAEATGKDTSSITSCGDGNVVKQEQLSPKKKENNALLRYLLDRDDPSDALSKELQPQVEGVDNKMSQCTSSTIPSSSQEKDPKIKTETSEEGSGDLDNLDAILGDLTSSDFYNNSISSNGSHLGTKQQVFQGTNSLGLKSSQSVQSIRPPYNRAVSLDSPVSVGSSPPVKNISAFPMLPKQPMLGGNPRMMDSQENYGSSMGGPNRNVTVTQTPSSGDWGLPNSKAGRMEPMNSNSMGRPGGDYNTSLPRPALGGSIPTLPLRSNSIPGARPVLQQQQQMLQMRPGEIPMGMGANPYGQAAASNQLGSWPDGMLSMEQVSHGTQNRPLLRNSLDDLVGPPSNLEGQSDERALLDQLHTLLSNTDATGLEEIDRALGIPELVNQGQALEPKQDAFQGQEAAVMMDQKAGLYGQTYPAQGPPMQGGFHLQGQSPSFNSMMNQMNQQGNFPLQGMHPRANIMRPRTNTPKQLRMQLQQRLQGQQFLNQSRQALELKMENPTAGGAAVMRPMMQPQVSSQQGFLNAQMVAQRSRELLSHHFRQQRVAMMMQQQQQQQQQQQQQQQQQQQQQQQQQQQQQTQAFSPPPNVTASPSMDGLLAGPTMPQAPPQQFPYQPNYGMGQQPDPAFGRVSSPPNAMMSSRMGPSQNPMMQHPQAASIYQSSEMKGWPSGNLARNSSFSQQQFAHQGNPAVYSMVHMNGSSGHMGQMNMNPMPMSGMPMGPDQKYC

CC(C)N(c1ccccc1)c1ccc(NC(=O)COC(=O)CCN2C(=O)c3cccc([N+](=O)[O-])c3C2=O)cc1
IC50 [1]: > 64.6 µM (inactive) | IC50 [2]: > 64.6 µM (inactive)

COc1ccc(S(=O)(=O)N2c3cc(Cl)ccc3Oc3nc4ccccc4nc32)cc1
EC50 [3]: 7.56 µM (active) | EC50 [4]: > 12 µM (not active) | EC50 [5]: > 12 µM (not active) | EC50 [6]: 6.91 µM (inconclusive) | EC50 [7]: < 0.104 µM (active) | EC50 [8]: 3.64 µM (inconclusive) | EC50 [9]: 3.81 µM (active) | EC50 [10]: < 0.1 µM (active) | EC50 [11]: 7.55 µM (inconclusive) | EC50 [12]: 5.06 µM (active) | EC50 [13]: 2.41 µM (active)

Cc1ccc(C(=O)COC(=O)CN2C(=O)C3CC=CCC3C2=O)cc1[N+](=O)[O-] (configuration not stated)
EC50 [14]: > 40 µM (inactive) | IC50 [15]: 33.6 µM (not active)

CC(=O)NNC(=S)NC(=O)c1ccccc1
IC50 [16]: > 50 µM (inactive) | IC50 [17]: > 50 µM (inconclusive)

Cc1ccc(S(=O)(=O)c2nc(-c3cccs3)oc2SCC(N)=O)cc1
EC50 [18]: 8.44 µM (active) | EC50 [19]: 7.72 µM (active) | EC50 [20]: > 79.4 µM (not active)

COC(=O)c1nnc(NC(C)=O)[nH]1
IC50 [16]: 12.2 µM (active)

Cc1c2cnccc2c(C)c2c1c1ccccc1n2CCCCCCNCc1ccccc1
GI50 [21]: 0.269 µM (active) | GI50 [22]: 1.02 µM (active) | GI50 [23]: 0.246 µM (active)

CC[C@](C)(O)C(=O)O[C@H]1C(=O)O[C@@H]2C[C@H]3C(C)=C[C@H](O)[C@@H](O)[C@]3(C)[C@H]3[C@@]4(O)OC[C@]32[C@@H]1[C@@H](C)[C@H]4O
GI50 [21]: 45.3 µM (inactive) | GI50 [22]: 7.19 µM (inactive) | GI50 [23]: 88.5 µM (inactive)

Cc1ccc(-c2cc3c(nn2)-c2ccccc2C3=O)cc1
AC50 [24]: 25.5 µM (active) | AC50 [25]: 35.8 µM (active) | EC50 [14]: > 40 µM (inactive) | AC50 [26]: 1.65 µM (active) | IC50 [15]: 2.89 µM (active) | AC50 [27]: 1.11 µM (active) | AC50 [28]: 18.3 µM (active)

NC1(C(=O)O)CCCC1 [CYCLOLEUCINE]
GI50 [21]: > 625 µM (inactive) | GI50 [22]: > 625 µM (inactive) | GI50 [23]: > 625 µM (inactive)
